Experimental data as given in US20020002277A1, “Inhibitors of platelet activation and recruitment” (priority 1998, published 2002).

Tests used:
platelets = assay: Ex vivo additive inhibition of platelet aggregation in platelet rich plasma from patients; assay type: cell-based, human; conditions: PRP from patients receiving the drug (clopidogrel, ticlopidine, abciximab groups also received aspirin)
Method: Each group consisted of three to six patients. […] SoICD39 (10 μg/ml or 100 μg/ml) was then added and the additional inhibition of platelet activation (over baseline, in response to the platelet agonists) was measured in each of the five groups.

murine platelets = assay: Ex vivo aggregation of murine platelets after treatment; assay type: in vivo, C57BL/6J mice; conditions: PRP 1 hour after solCD39 4 mg/kg or aspirin 5 mg/kg
Method: C57BL/6J mice (6-8 wk) were obtained from Jackson Laboratories (Bar Harbor, Me.). […] 80 μL of 3.8% trisodium citrate was added to each mL of blood. […] The PRP contained 400-700×10^3 platelets per μL. All experiments were completed within 2 hours of blood collection. PRP (200 μL) was preincubated, for 3 min. at 37° C., with 100 μL Tris-buffered saline buffer ([…], 5 mM glucose, pH 7.4) in an aggregometer cuvette (Lumiaggregometer; Chrono-Log, Havertown, Pa.), and the platelet agonists ADP, collagen, or sodium arachidonate were added at the final concentrations indicated.

[1] = Murine model of stroke (middle cerebral artery occlusion); assay type: in vivo, C57BL/6J mice
Method: Anesthetized mice were maintained at 37±2° C. during and for 90 min following surgery. A midline neck incision was made and the right carotid artery exposed. Middle cerebral artery occlusion was accomplished by advancing a 13-mm heat-blunt tipped 6-0 nylon suture via an arteriotomy in the external carotid stump. The external carotid artery was cauterized to secure hemostasis, and arterial flow re-established. […] Surgical staples were used for wound closure.

[2] = Phosphate release assay for ATPase activity; assay type: biochemical; conditions: for CPM × 10^3 (net counts), ATPase activity in CM: 5 days (Table 3); for Activity (pmol ATP/min/μg) × 10^3: specific activity based on ELISA concentration, COS-1 1x supernatant, 10 cm plates, 5 days
Method: This example describes an ATPase assay that may be used to track enzyme activity. Samples (approximately 100 μl of either concentrated CM or purified polypeptide) are combined with 20 μl of 10X assay buffer (200 mM HEPES, 1.2 M NaCl, 50 mM KCl, 15 mM CaCl2, 15 mM MgCl2 and 3 mM ATP) and sterile water is added to a final volume of 200 μl. Radiolabeled ATP (0.8 μCi γ [^32P] ATP; Amersham, Arlington Heights, Ill.) is added and the mixture incubated for 20 minutes at 37° C. Stop mix (0.5 ml of 20% activated charcoal/1 M HCl) is added and the reaction is placed on ice for 10 minutes. After centrifugation (14K rpm for 10 minutes), the supernatant is assayed for free ^32P using a scintillation counter. Data are expressed as raw counts or net counts, or as picomoles of ATP degraded per minute.
The transfections were repeated and the CM (10, 20 and 30 μL, unconcentrated) was assayed essentially as described in Example 7. […] ATPase levels in CM from COS-1 cells transfected with pIL2LFlagSolCD39 increased with time in culture over at least 4 days post-transfection.
To determine whether activity was affected by removal of the N-terminal FLAG® tag, COS-1 cells were transfected with pIL2LFlagSolCD39 and pIL2LSolCD39 and supernatants (sups) were harvested after 5 days. Samples of 10, 20 and 30 μL of 1x sups were assayed for ATPase activity as described in Example 7.
The expression of Trim1 and Trim2 constructs was analyzed in COS-1 cells cultured in 10 cm plates. After 5 days of incubation, 1x supernatants were examined via ELISA (using anti-CD39) and the phosphate-release assay described in Example 7. […] Expression levels, however, appeared to be reduced 3-4 fold.

[3] = Enzymatic (ATPase and ADPase) activity of site-directed CD39 mutants; assay type: biochemical; conditions: alanine replacement mutant
Method: Mutants were assayed for enzymatic (ATPase and ADPase) and platelet inhibitory (dose-dependent inhibition of platelet aggregation) activities. For one series of mutants, residues within the conserved apyrase regions were replaced with alanine.

Molecule | Activity (pmol ATP/min/μg) × 10^3 [2] | Platelet aggregation, baseline (platelets; agonist ADP) | Platelet aggregation, baseline (platelets; agonist Collagen) | Platelet aggregation, baseline (platelets; agonist TRAP) | further results
COC(=O)[C@H](c1ccccc1Cl)N1CCc2sccc2C1 [Clopidogrel, clopidogrel] | – | 58 ± 6 arbitrary units | 57 ± 9 arbitrary units | 51 ± 2 arbitrary units | –
CC(=O)Oc1ccccc1C(=O)O [aspirin, acetylsalicylic acid] | – | 69 ± 5 arbitrary units | 62 ± 8 arbitrary units | 66 ± 6 arbitrary units | ex vivo platelet aggregation, collagen (murine platelets; 2.5 μg/ml collagen): strongly aggregated; ex vivo platelet aggregation, ADP (murine platelets; 10 μM ADP): strongly aggregated; ex vivo platelet aggregation, arachidonate (murine platelets; 0.1 mM sodium arachidonate): only blocked platelet reactivity to arachidonate; postischemic cerebral blood flow ([1]; 24 hours after stroke induction): no improvement was seen in postischemic cerebral blood flow; intracerebral hemorrhage following stroke ([1]; measured spectrophotometrically, any dose of solCD39 tested, aspirin 5 mg/kg): increased intracerebral hemorrhage; cerebral infarct volume ([1]; preoperative administration, solCD39 4 & 8 mg/kg, aspirin 5 mg/kg): tendency to decrease cerebral infarct volume, although this effect was not statistically significant
S218A mutant: CD39 mutant, Serine218 replaced with alanine (protein, UniProt P49961 1-510, looked up, variant S218A) Ectonucleoside triphosphate …: MEDTKESNVKTFCSKNILAILGFSSIIAVIALLAVGLTQNKALPENVKYGIVLDAGSSHTSLYIYKWPAEKENDTGVVHQVEECRVKGPGISKFVQKVNEIGIYLTDCMERAREVIPRSQHQETPVYLGATAGMRLLRMESEELADRVLDVVERSLSNYPFDFQGARIITGQEEGAYGWITINYLLGKFSQKTRWFSIVPYETNNQETFGALDLGGAATQVTFVPQNQTIESPDNALQFRLYGKDYNVYTHSFLCYGKDQALWQKLAKDIQVASNEILRDPCFHPGYKKVVNVSDLYKTPCTKRFEMTLPFQQFEIQGIGNYQQCHQSILELFNTSYCPYSQCAFNGIFLPPLQGDFGAFSAFYFVMKFLNLTSEKVSQEKVTEMMKKFCAQPWEEIKTSYAGVKEKYLSEYCFSGTYILSLLLQGYHFTADSWEHIHFIGKIQGSDAGWTLGYMLNLTNMIPAEQPLSTPLSHSTYVFLMVLFSLVLFTVAIIGLLIFHKPSYFWKDMV | – | – | – | – | ADPase activity retained [3]: less than 10%
Abciximab: platelet-specific chimeric antibody, glycoprotein IIb/IIIa antagonist (trade name ReoPro) (antibody, chains of the INN, looked up, V domains shown, Fab) VH: EVQLQQSGTVLARPGASVKMSCEASGYTFTNYWMHWVKQRPGQGLEWIGAIYPGNSDTSYIQKFKGKAKLTAVTSTTSVYMELSSLTNEDSAVYYCTLYDGYYVFAYWGQGTLVTVSA VL: EIVLTQSPVTLSVTPGDSVSLSCRASRDISNNLHWFQQTSHESPRLLIKYASQSMSGIPSRFSGSGSGTDFTLSINSVETEDFGMYFCQQTNSWPYTFGGGTKLEIK | – | 0 ± 0 arbitrary units | 0 ± 0 arbitrary units | 46 ± 6 arbitrary units | –

Second part, led by results:

Activity (pmol ATP/min/μg) × 10^3 [2] | Molecule | Platelet aggregation, baseline (platelets; agonist ADP) | Platelet aggregation, baseline (platelets; agonist Collagen) | Platelet aggregation, baseline (platelets; agonist TRAP) | further results
5.67 pmol ATP/min/μg × 10^3 | pIL2LSolCD39: untagged soluble human CD39 with huIL2 leader, 12 mature IL2 residues and three amino acid linker (SEQ ID NO:7) (protein) MALWIDRMQLLSCIALSLALVTNSAPTSSSTKKTQLTSSTQNKALPENVKYGIVLDAGSSHTSLYIYKWPAEKENDTGVVHQVEECRVKGPGISKFVQKVNEIGIYLTDCMERAREVIPRSQHQETPVYLGATAGMRLLRMESEELADRVLDVVERSLSNYPFDFQGARIITGQEEGAYGWITINYLLGKFSQKTRWFSIVPYETNNQETFGALDLGGASTQVTFVPQNQTIESPDNALQFRLYGKDYNVYTHSFLCYGKDQALWQKLAKDIQVASNEILRDPCFHPGYKKVVNVSDLYKTPCTKRFEMTLPFQQFEIQGIGNYQQCHQSILELFNTSYCPYSQCAFNGIFLPPLQGDFGAFSAFYFVMKFLNLTSEKVSQEKVTEMMKKFCAQPWEEIKTSYAGVKEKYLSEYCFSGTYILSLLLQGYHFTADSWEHIHFIGKIQGSDAGWTLGYMLNLTNMIPAEQPLSTPLSHST | – | – | – | CPM × 10^3 (net counts), ATPase activity in CM ([2]; 10 μL 1x COS-1 supernatant): 20.1 CPM × 10^3; CPM × 10^3 (net counts), ATPase activity in CM ([2]; 20 μL 1x COS-1 supernatant): 36.0 CPM × 10^3; CPM × 10^3 (net counts), ATPase activity in CM ([2]; 30 μL 1x COS-1 supernatant): 51.0 CPM × 10^3
8.38 pmol ATP/min/μg × 10^3 | pIL2LTrim1: huIL2 leader joined to solCD39 with an intervening alanine residue (SEQ ID NO:27) (protein) MALWIDRMQLLSCIALSLALVTNSATQNKALPENVKYGIVLDAGSSHTSLYIYKWPAEKENDTGVVHQVEECRVKGPGISKFVQKVNEIGIYLTDCMERAREVIPRSQHQETPVYLGATAGMRLLRMESEELADRVLDVVERSLSNYPFDFQGARIITGQEEGAYGWITINYLLGKFSQKTRWFSIVPYETNNQETFGALDLGGASTQVTFVPQNQTIESPDNALQFRLYGKDYNVYTHSFLCYGKDQALWQKLAKDIQVASNEILRDPCFHPGYKKVVNVSDLYKTPCTKRFEMTLPFQQFEIQGIGNYQQCHQSILELFNTSYCPYSQCAFNGIFLPPLQGDFGAFSAFYFVMKFLNLTSEKVSQEKVTEMMKKFCAQPWEEIKTSYAGVKEKYLSEYCFSGTYILSLLLQGYHFTADSWEHIHFIGKIQGSDAGWTLGYMLNLTNMIPAEQPLSTPLSHST | – | – | – | –
6.67 pmol ATP/min/μg × 10^3 | pIL2LTrim2: huIL2 leader with an intervening Ala-Ser-Ser linker preceding solCD39 (protein, left off: small tags and cut ends) TQNKALPENVKYGIVLDAGSSHTSLYIYKWPAEKENDTGVVHQVEECRVKGPGISKFVQKVNEIGIYLTDCMERAREVIPRSQHQETPVYLGATAGMRLLRMESEELADRVLDVVERSLSNYPFDFQGARIITGQEEGAYGWITINYLLGKFSQKTRWFSIVPYETNNQETFGALDLGGASTQVTFVPQNQTIESPDNALQFRLYGKDYNVYTHSFLCYGKDQALWQKLAKDIQVASNEILRDPCFHPGYKKVVNVSDLYKTPCTKRFEMTLPFQQFEIQGIGNYQQCHQSILELFNTSYCPYSQCAFNGIFLPPLQGDFGAFSAFYFVMKFLNLTSEKVSQEKVTEMMKKFCAQPWEEIKTSYAGVKEKYLSEYCFSGTYILSLLLQGYHFTADSWEHIHFIGKIQGSDAGWTLGYMLNLTNMIPAEQPLSTPLSHST | – | – | – | –
